Experimental data published in US20240016786A1, “GLUCOSIDASE INHIBITORS FOR THE TREATMENT AND PREVENTION OF PULMONARY INFECTIONS” (priority 2020, published 2024).
Converted amounts (≈) assume the structure as drawn. Read-outs that look alike come from different tables or passages of the source.

Columns and labels:
[1] = system: SARS-CoV-2; assay: SARS-CoV-2 Virospot reduction assay, (strain not specified); format: cell-based; conditions: for activity against strains of SARS-CoV-2: good in vitro activity e.g. IC50<100 μg/mL
[2] = system: SARS-Cov-2 UK (B.1.1.7); assay: SARS-CoV-2 Virospot reduction assay (Viroclinics), Vero E6 cells; format: cell-based
[3] = system: SARS-Cov-2 Germany/BavPat1/2020; assay: as above; format: cell-based
Experimental: SARS-CoV-2 testing was carried out by the independent contract research organization Viroclinics, Netherlands, using the SARS—CoV-2 Virospot reduction assay. This is a high throughput assay to determine the IC50/IC90 (also termed EC50/EC90) of putative antiviral compounds as compared to other assay formats (such as traditional plaque count assays), and improved traceability from raw data to results. The assay measures drug or antibody-mediated reduction of virus propagation in cell monolayers, by virus-specific immunostaining and automated imaging of infected cells. Automated counting of the number of infected foci (i.e., “spots”) provides the raw data for IC50/IC90 calculations.
A serial dilution series of the test article is mixed with a fixed amount of virus and the virus/inhibitor is added to Vero E6 cells. Virus control wells without inhibitor and cell controls without drug and virus are included. Viral propagation is measured after 16-24 h incubation by TrueBlue immunostaining of infected cells and automated counting of viral “spots” (corresponding to area of viral growth and protein expression) and the IC50 value is calculated using 4 replicates.
Adherent cells were seeded in multi-well plates. Cell cultures were inoculated with a standardized amount of virus, in the absence and presence of serial compound dilutions, followed by 18-24 hours of incubation and an appropriate virus detection method (Immunostaining and count spots using a CTL Immunospot Image Analyser).
Virus signals were detected in presence of each compound concentration determine the 50% inhibitory concentration (IC50) and the 90% inhibitory concentration (IC90). The IC50 and IC90 values were calculated from the virus signals using the method described by Zielinska et al. (Virol J. 2005, 2(84)).
Remdesivir was used as a positive control.
Although cytotoxicity was not directly measured, the assay required intact cell monolayers to deliver a result. Severe cytotoxicity would be evident upon visual inspection and any deleterious effect of compound upon cell health is likely to negatively impact the formation of “spots”. This was not reported.

[4] = system: SARS-Cov-2 SA (B.1.351); assay: as above; format: cell-based
[5] = system: SARS-CoV-2; conditions: Huh7-hACE2 cells; cited from earlier work
[6] = system: Huh7-hACE2 cells; conditions: cited from earlier work
[7] = Hygroscopicity observed on recovery of spray dried material; format: physicochemical; conditions: on collection/recovery after spray drying
[8] = system: Huh7-hACE2 cells; conditions: cited from earlier work; remark: listed apart in the source
[9] = system: SARS-CoV-1; conditions: SARS-CoV-1 in vitro; cited from earlier work
[10] = system: cells in culture; conditions: cited from earlier work
[11] = Severe acute respiratory syndrome coronavirus 2, Vero C1008, read-out: IC50
[12] = Severe acute respiratory syndrome coronavirus 2, Vero C1008, read-out: IC90
[13] = Severe acute respiratory syndrome coronavirus 2, Virospot reduction assay

Structure (SMILES) | activity against strains of SARS-CoV-2 [1] | IC50 [2, 11] [µg/mL] | IC90 [2, 12] [µg/mL] | IC50 [3, 11] [µg/mL] | IC90 [3, 12] [µg/mL] | IC50 [4, 11] [µg/mL] | IC90 [4, 12] [µg/mL] | also measured
OC[C@@H]1[C@@H](O)[C@H](O)[C@@H](O)CN1CCCCCOCC12CC3CC(CC(C3)C1)C2 [AMP-DNM, N-adamantanemethyloxypentyl-1-deoxynojirimycin] | active against at least three strain |  |  |  |  |  |  | IC50 [2]: 7.7 µg/mL (≈ 19.4 µM); IC90 [2]: 34.4 µg/mL (≈ 86.5 µM); IC50 [3]: 8.3 µg/mL (≈ 20.9 µM); IC90 [3]: 28.6 µg/mL (≈ 71.9 µM); IC50 [4]: 2.7 µg/mL (≈ 6.79 µM); IC90 [4]: 24.8 µg/mL (≈ 62.4 µM)
C[C@H]1O[C@H](O[C@H]2[C@H](O)[C@@H](O)[C@@H](O[C@H]3[C@H](O)[C@@H](O)C(O)O[C@@H]3CO)O[C@@H]2CO)[C@H](O)[C@@H](O)[C@@H]1N[C@H]1C=C(CO)[C@@H](O)[C@H](O)[C@H]1O (stereo partly drawn) [Acarbose] |  | > 200 | > 200 | > 200 | > 200 | > 200 | > 200 | 
CCCC(=O)O[C@H]1CN2CC[C@H](O)[C@@H]2[C@@H](O)[C@@H]1O [Celgosivir (6-O-butanoylcastanospermine), 6-O-butanoylcastanospermine] |  | > 200 | > 200 | > 200 | > 200 | > 200 | > 200 | IC50 [1, 13]: > 200 µg/mL; EC50 [5]: 1 ± 0.2 µM; lack of cytotoxicity up to the highest concentrations tested ([6]; viable nuclei, Huh7-hACE2 cells): 500 µM
OCCN1C[C@H](O)[C@@H](O)[C@H](O)[C@H]1CO [Glyset (Miglitol), miglitol] | active against at least one strain | > 200 | > 200 | > 200 | > 200 | 90 (≈ 434 µM) | > 200 | hygroscopicity [7]: extremely hygroscopic
CC(C)(C)NC(=O)N(CCCCCCN1C[C@H](O)[C@@H](O)[C@H](O)[C@H]1CO)C1CCCCC1 [IHVR-19029, 3-tert-butyl-1-cyclohexyl-1-[6-[(2R,3R,4R,5S)-3,4,5-trihydroxy-2-(hydroxymethyl)piperidin-1-yl]hexyl]urea] | active against at least three strain | 58.5 (≈ 132 µM) | > 200 | 48.5 (≈ 109 µM) | > 200 | 5.5 (≈ 12.4 µM) | > 200 | 
CCCCN1C[C@H](O)[C@@H](O)[C@H](O)[C@H]1CO [Miglustat (NB-DNJ), N-butyl-1-deoxynojirimycin] | active against at least one strain | > 200 | > 200 | > 200 | > 200 | 19.2 (≈ 87.6 µM) | > 200 | CC50 [8]: > 1000 µM; IC50 [4]: 15.0 µg/mL (≈ 68.4 µM); EC50 [5]: 19.9 ± 3.4 µM; EC50 [9]: ~100 µg/mL (≈ 456 µM); cytotoxicity [10]: little cytotoxicity; lack of cytotoxicity up to the highest concentrations tested [6]: 200 µM
[N-]=[N+]=Nc1ccc(NCCCCCCN2C[C@H](O)[C@@H](O)[C@H](O)[C@H]2CO)c([N+](=O)[O-])c1 [NAP-DNJ, N-(6′-[4″-azido-2″-nitrophenylamino]hexyl)-1-deoxynojirimycin] | active against at least three strain | 1.7 (≈ 4.01 µM) | 7.9 (≈ 18.6 µM) | 1.4 (≈ 3.3 µM) | 10.2 (≈ 24 µM) | 0.1 (≈ 0.236 µM) | 5.7 (≈ 13.4 µM) | IC50 [1, 13]: < 10 µg/mL; IC90 [1, 13]: < 40 µg/mL
OCC(CO)N[C@H]1C[C@](O)(CO)[C@@H](O)[C@H](O)[C@H]1O [Voglibose] | active against at least one strain | > 200 | > 200 | > 200 | > 200 | 91.2 (≈ 341 µM) | > 200 | 
